Assay results from paper PMC10052977, “α,ω-Diacyl-Substituted Analogues of Natural and Unnatural Polyamines: Identification of Potent Bactericides That Selectively Target Bacterial Membranes” (International Journal of Molecular Sciences, 2023).
Like-named read-outs stand apart in the source and are kept apart here.

What was measured:
[1] = system: Staphylococcus aureus ATCC 25923 or ATCC 29213; experiment: MIC, broth dilution (CA-SFM); format: cell-based
MRSA ATCC 43300 = experiment: MIC, CO-ADD broth microdilution; format: cell-based, Staphylococcus aureus; details: for MIC: Staphylococcus aureus, MRSA ATCC 43300, mean (n = 2), read-out: MIC MRSA
[2] = system: Escherichia coli ATCC 25922; experiment: MIC, CO-ADD broth microdilution; format: cell-based; details: ATCC25922, mean (n = 2)
[3] = system: Pseudomonas aeruginosa PAO1 or ATCC 27853; experiment: MIC, broth dilution (CA-SFM); format: cell-based; details: mean (n = 3)
[4] = system: Klebsiella pneumoniae ATCC700603; experiment: MIC, CO-ADD broth microdilution; format: cell-based; details: mean (n = 2)
[5] = system: Acinetobacter baumannii ATCC19606; experiment: MIC, CO-ADD broth microdilution; format: cell-based; details: mean (n = 2)
[6] = system: Candida albicans ATCC90028; experiment: Antifungal MIC, CO-ADD; format: cell-based; details: mean (n = 2)
Outline: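 Yeast from 3-day YPD cultures was diluted in YNB broth to a final 2.5 × 10^3 CFU/mL and incubated at 35 °C for 36 h without shaking. C. albicans MICs were read by OD530 absorbance. QC used fluconazole and Z'-factor controls.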

[7] = system: Cryptococcus neoformans ATCC208821; experiment: Antifungal MIC, CO-ADD; format: cell-based; details: ATCC208821, Cryptococcus neoformans ATCC208821, mean (n = 2)
Outline: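 Fungal strains were grown on YPD agar at 30 °C for 3 days. Five colonies were used to make a yeast suspension of 1 × 10^6 to 5 × 10^6 CFU/mL, which was diluted in yeast nitrogen base (YNB) broth to 2.5 × 10^3 CFU/mL. Covered plates were incubated without shaking at 35 °C for 36 h. Fluconazole was the positive control, and quality was judged from antimicrobial controls and the Z'-factor.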

[8] = Cytotoxicity assay (resazurin); format: cell-based, human; details: human; HEK293 cells; mean (n = 2); highest dose tested 32 μg/mL; read-out: Cytotoxicity (concentration of compound at 50% cytotoxicity, IC50)
human red blood cells = experiment: Hemolytic assay; format: cell-based; details: for Hemolysis (HC10, concentration at 10% hemolytic activity): mean (n = 2)
Outline: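 Washed human erythrocytes at 0.5 × 10^8 cells/mL in 0.9% NaCl, shaken 10 min with compound, then held 1 h at 37 °C. Released hemoglobin in supernatant after centrifugation read at OD405; HC10 and HC50 from variable-slope sigmoidal fit against log concentration.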

P. aeruginosa ATCC27853 = experiment: Doxycycline potentiation (MIC of antibiotic in presence of synergizing compound); format: cell-based, Pseudomonas aeruginosa; details: doxycycline 2 μg/mL, P. aeruginosa ATCC 27853
[9] = system: HEK293 human embryonic kidney cells; experiment: Cytotoxicity assay (resazurin); format: cell-based; details: HEK293
MRSA (CF-Marseille) [10] = experiment: MIC, classical microdilution; format: cell-based; details: Staphylococcus aureus, 4.4 μM = 4 μg/mL
[11] = system: Bacillus cereus ATCC 11778; experiment: MIC, classical microdilution; format: cell-based; details: ATCC11778, 4.4 μM = 4 μg/mL
[12] = system: Bacillus cereus ATCC 11778; experiment: Minimum bactericidal concentration test; format: cell-based; details: ATCC11778, same value as MIC
Method: (§1) A pure culture of a specified microorganism was grown overnight, then diluted in growth-supporting broth (typically Mueller–Hinton II broth) to a concentration between 1 × 10^5 and 1 × 10^6 CFU/mL. A stock dilution of the antimicrobial test compound was created at approximately 100 times the expected previously determined MIC. Further 1:1 dilution was made in 96-well microtiter plates. All dilutions of the test compound were inoculated with equal volumes of the specified microorganism (typically 100 µL). […] An aliquot of the positive control is plated and used to establish a baseline concentration of the microorganism used. The microtiter plates were then incubated at 37 °C for 24 h. Turbidity indicates growth of the microorganism, and the MIC is the lowest concentration where no growth is visually observed. To determine the minimum bactericidal concentration (MBC), the dilution representing the MIC and at least two of the more concentrated test product dilutions are plated on a solidified agar plate to determine the bacterial viability. The MBC is the lowest concentration where no growth is encountered when compared to the MIC dilution.

MRSA (CF-Marseille) [13] = experiment: Minimum bactericidal concentration test; format: cell-based; details: Staphylococcus aureus, same value as MIC
Method: as §1

S. aureus ATCC 25923 [14] = experiment: Minimum bactericidal concentration test; format: cell-based; details: Staphylococcus aureus, ATCC25923, same value as MIC
Method: as §1

MRSA (CF-Marseille) [15] = experiment: Real-time growth curves; format: cell-based, Staphylococcus aureus
Method: (§2) Solutions of compound 15d at concentrations of 2, 4 and 16 µg/mL were tested, each in triplicate, against S. aureus ATCC 25923, MRSA (CF-Marseille) and Bacillus cereus ATCC 11778. Typically, in a 96-well plate, 10 µL of 40, 80 and 320 µg/mL stock solutions of compound 15d were placed, as well as 190 µL of a 5 × 10^5 CFU/mL of the selected bacterial suspension in brain heart infusion (BHI) broth. Positive controls containing only 200 µL of a 5 × 10^5 CFU/mL of bacterial suspension in BHI and negative controls containing only 200 µL of BHI broth were added. The plate was incubated at 37 °C in a TECAN Spark Reader (Roche Diagnostic), and real-time bacterial growth was followed by OD590 nm measurement every 10 min during 19 h.

S. aureus ATCC 25923 [16] = experiment: Real-time growth curves; format: cell-based, Staphylococcus aureus
Method: as §2

[17] = system: Bacillus cereus ATCC 11778; experiment: Real-time growth curves; format: cell-based; details: B. cereus ATCC 11778
Method: as §2

S. aureus ATCC 25923 [18] = experiment: ATP release assay (bioluminescence); format: cell-based, Staphylococcus aureus; details: brief exposure
Method: The mechanism of action of antibacterial activity observed for 15d was attributed to the ability to disrupt the bacterial cell membrane.
Solutions of test compound 15d were prepared in DMSO at various concentrations. A suspension of growing S. aureus to be studied in Muller–Hinton II broth was prepared and incubated at 37 °C. An aliquot (90 µL) of this suspension was added to 10 µL of test compound solution and vortexed for 10 s. Luciferin–luciferase reagent (Yelen, France; 50 µL) was immediately added to this mixture and luminescent signal quantified with an Infinite M200 microplate reader (Tecan) over a 30 min period. ATP concentration was quantified by internal sample addition. A similar procedure was used for the CTAB positive control.

[19] = Staphylococcus aureus ATCC 25923 or ATCC 29213, mean (n = 3), read-out: MIC S. a
[20] = at 4.4 μM (4 µg/mL) and 17 μM (16 µg/mL)
[21] = lowest tested concentration 2.2 μM (2 µg/mL)

Row | SMILES | MIC [1, 19] | MIC (MRSA ATCC 43300) | MIC [2] | MIC [3] | MIC [4] | MIC [5] | MIC [6] | MIC [7] | IC50 at 20 h [8] | Hemolysis (HC10, concentration at 10% hemolytic activity) (human red blood cells) | fold increase (antibiotic enhancement vs intrinsic MIC) (P. aeruginosa ATCC27853) | cytotoxicity [9] | hemolytic properties (human red blood cells) | other results
1 | O=C(CC(c1ccccc1)c1ccccc1)NCCCNCCCCNCCCNC(=O)CC(c1ccccc1)c1ccccc1.O=C(O)C(F)(F)F.O=C(O)C(F)(F)F [Compound 15a, N^1,N^4-Bis(3-(3,3-diphenylpropanamido)propyl)butane-1,4-diaminium 2,2,2-trifluoroacetate] | 6.25 µM | ≤ 0.3 µM | ≤ 0.3 µM | 50 µM | > 37.8 µM | > 37.8 µM | > 37.8 µM | > 37.8 µM | > 37.8 µM | >37.8 µM | 4 fold | – | – | –
2 | O=C(CC(c1ccccc1)c1ccccc1)NCCCNCCCCCCCCNCCCNC(=O)CC(c1ccccc1)c1ccccc1.O=C(O)C(F)(F)F.O=C(O)C(F)(F)F [Compound 15d, N^1,N^8-Bis(3-(3,3-diphenylpropanamido)propyl)octane-1,8-diaminium 2,2,2-trifluoroacetate] | 3.13 µM | ≤ 0.28 µM | 2.2 µM | 100 µM | > 35.4 µM | > 35.4 µM | > 35.4 µM | > 35.4 µM | > 35.4 µM | >35.4 µM | – | no detectable | no detectable | MIC ([1]; Staphylococcus aureus, S. aureus ATCC 25923, classical microdilution, 4.4 μM = 4 μg/mL, read-out: MIC): 4.4 µM; MIC (MRSA (CF-Marseille) [10]): 4.4 µM; MIC [11]: 4.4 µM; MBC [12]: 4.4 µM; MBC (MRSA (CF-Marseille) [13]): 4.4 µM; MBC (S. aureus ATCC 25923 [14]): 4.4 µM; real-time growth inhibition (MRSA (CF-Marseille) [15]; [20]): completely inhibited; time after which bacterial growth was detected (MRSA (CF-Marseille) [15]; [21]): 4 h; real-time growth inhibition (S. aureus ATCC 25923 [16]; [20]): completely inhibited; time after which bacterial growth was detected (S. aureus ATCC 25923 [16]; [21]): 6 h; real-time growth inhibition [17, 20]: completely inhibited; time after which bacterial growth was detected [17, 21]: 12 h; leakage of intracellular ATP (S. aureus ATCC 25923 [18]): rapid dose-dependent leakage of intracellular ATP
3 | Cl.Cl.S=C(NCCCNCCCCCCCCCCNCCCNC(=S)NC(c1ccccc1)c1ccccc1)NC(c1ccccc1)c1ccccc1 [Compound 6e, N^1,N^10-Bis(3-(3-benzhydrylthioureido)propyl)decane-1,10-diaminium chloride] | > 247 µM | ≤ 0.31 µM | ≤ 0.31 µM | 247 µM | > 39.5 µM | 4.9 µM | ≤ 0.31 µM | > 39.5 µM | > 39.5 µM | >39.5 µM | – | – | – | antibiotic enhancement of doxycycline (P. aeruginosa ATCC27853): particularly strong enhancers; melting point: 114 to 115 °C
4 | O=C(CCC(=O)NCCC(c1ccccc1)c1ccccc1)NCCCNCCCCNCCCNC(=O)CCC(=O)NCCC(c1ccccc1)c1ccccc1.O=C(O)C(F)(F)F.O=C(O)C(F)(F)F [Compound 16a, N^1,N^4-Bis(3-(4-((3,3-diphenylpropyl)amino)-4-oxobutanamido)propyl)butane-1,4-diaminium 2,2,2-trifluoroacetate] | 25 µM | ≤ 0.25 µM | > 31.5 µM | – | > 31.5 µM | > 31.5 µM | > 31.5 µM | ≤ 0.28 µM | > 31.5 µM | >31.5 µM | 8 fold | – | – | MIC ([3]; 18 h): 20 µM
5 | O=C(CCC(=O)NCCCc1ccccc1)NCCCNCCCCCCCCCCCCNCCCNC(=O)CCC(=O)NCCCc1ccccc1.O=C(O)C(F)(F)F.O=C(O)C(F)(F)F [Compound 14f, N^1,N^12-Bis(3-(4-oxo-4-((3-phenylpropyl)amino)butanamido)propyl)dodecane-1,12-diaminium 2,2,2-trifluoroacetate] | 6.25 µM | ≤ 0.26 µM | > 32.7 µM | > 100 µM | > 32.7 µM | > 32.7 µM | > 32.7 µM | > 32.7 µM | > 32.7 µM | >32.7 µM | – | non-toxic | non-hemolytic | activity towards MRSA (MRSA ATCC 43300; MRSA): potent
